In patent US10736971B2, “Peptide-based molecules for modulating car expression or accessibility and uses thereof” (Wright State University, priority 2015, dated 2020):
Residues, ends and D or L forms follow the SMILES beside them.

Tests used:
MAGI-1 PDZ1 domain = MAGI-1 PDZ1 domain (Homo sapiens, UniProt Q96QZ7); experiment: Ligand binding assay with purified MAGI-1 PDZ1 domain
From the text: Ligand binding assay between TAT-ESAM and purified MAGI-1 PDZ1 or PDZ-3.
MAGI-1 PDZ3 domain was used as a control.

CAR^Ex8 [1] = experiment: Western blot / apical surface biotinylation of CAR^Ex8 in MDCK epithelia; format: cell-based, canine
From the text: (§1) MAGI-1 PDZ binding peptides (BP) can alter CAR^EX8 apical protein levels and AdV infection. […] A) MAGI-1 PDZ1 can rescue CAR^Ex8 expression while PDZ3 decreases CAR^EX8 expression. B) Peptides that bind to PDZ3 will prevent degradation of CAR^Ex8 and rescue CAR^EX8 expression and C) peptides that bind to PDZ1 will prevent rescue of CAR^Ex8 and […] CAR^Ex8 degradation. D) Apical surface-specific biotinylation of polarized MDCK epithelia treated with PDZ1 binding peptide decreases apical levels of CAR^EX8 while PDZ3 binding peptide increase apical CAR^EX8, relative to control. E) Treatment with PDZ3 binding peptide increases while PDZ1 binding peptide decreases AdV5-β-Gal entry as determined by qPCR for viral genomes (Vg). F) AdV5-Cre infection turns cells from red (uninfected) to green (infected) in tDT-mouse airway epithelial cells. Baseline infection in control-peptide treated airway epithelia show an even distribution of uninfected red cells and infected green cells.
(§2) (A) Western blotting of MDCK cells treated with either TAT-CAR^Ex8 or control TAT-CAR^Ex8-AA. […] (C) Polarized MDCK cells were treated with either TAT-CAR^Ex8 or TAT-ESAM and the apical surface subjected to apical surface biotinylation, followed by neutravidin pull down and Western blot of apical surface proteins. […] (E) TAT-cell permeable peptides interrupt MAGI-1-CAR^Ex8 interactions. […]

AdV [2] = experiment: qPCR of AdV viral genome (transduction/entry) in MDCK epithelia; format: cell-based, canine; details: versus control
From the text: as §1, §2

CAR^Ex8 [3] = experiment: Immunocytochemistry of CAR^Ex8 in polarized MDCK cells; format: cell-based, canine; details: 50 μM
From the text: CAR^Ex8 is localized mainly at the apical surface of polarized MDCK cells. […] Red (CAR^Ex8), Green (MAGI-1, a junctional protein), Blue (nucleus, DAPI). 60× oil immersion confocal microscopy.
(A) CAR^Ex8 (red) localizes mainly at the apical membrane of MDCK epithelial cells (see xz section). […] 60× oil immersion confocal microscopy.

CAR^Ex8 [4] = experiment: Western blot of CAR^Ex8 in well differentiated primary human airway epithelia; format: cell-based; details: versus control
From the text: (A) Western blotting from human airway epithelia treated with either TAT-scramble or TAT-PDZ1 peptides (TAT-E6 or TAT-NET1). […] Actin was used to confirm equal protein loading.

AdV [5] = experiment: qPCR of AdV viral genome in primary human airway epithelia; format: cell-based; details: versus control
[6] = system: primary human airway epithelia; experiment: Epithelial integrity (TER, FITC-Dextran diffusion) and toxicity; format: cell-based
Experimental: In panel (A), epithelial cells were seeded on transwells and treated with a single dose of PBS, TAT-scramble or TAT-PDZ3 (TAT-CAR^Ex8 or TAT-ESAM) peptides (50 μM) daily for 16 days. Transepithelial resistance (TER) was measured every other day for 16 days to indicate the amount of epithelial polarization. […] Each condition represents the average of 4 replicates. (B) FITC-Dextran 4 kDa diffusion across treated epithelia in the absence of EDTA. […] (C) Pre-treatment with EDTA to disrupt tight junctions increased Dextran 4 kDa permeability in all conditions. FITC-Dextran 4 kDa was added to the apical membrane compartment and Dextran present in the basolateral media was measured and quantified. […] FITC-Dextran 70 kDa was added to the apical membrane compartment and Dextran in the basolateral media was measured and quantified.
(A) Primary human airway epithelial cells were treated with a single dose of PBS, TAT-scramble (50 μM), or TAT-PDZ1 peptides (50 μM) each day for 14 days. Transepithelial resistance (TER) was taken every other day for 14 days. No change in TER was noticeable upon treatment with TAT-PDZ1 peptides indicating similar epithelium formation. (B) FITC-Dextran 4 kDa diffusion across treated epithelia in the presence or absence of EDTA. There was no difference in Dextran 4 kDa diffusion among treatments indicating intact epithelial tight junctions. Pre-treatment with EDTA increased Dextran 4 kDa permeability similarly in all conditions indicating disruption of epithelial tight junctions. FITC-Dextran 4 kDa was added to the apical membrane and the diffused Dextran was collected from the basolateral media and measured. (C) There was no difference in Dextran 70 kDa diffusion among treatments indicating intact epithelial tight junctions. FITC-Dextran 70 kDa was added to the apical membrane and the diffused Dextran was collected from the basolateral media and measured.

Chain of MAGI-1 PDZ1 domain (Q96QZ7 472-554 limits assumed): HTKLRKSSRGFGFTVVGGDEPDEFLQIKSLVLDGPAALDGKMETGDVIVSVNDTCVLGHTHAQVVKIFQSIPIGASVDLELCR

Row | Compound | Kd (MAGI-1 PDZ1 domain) | CAR^Ex8 protein level (Western blotting) (CAR^Ex8 [1]) | AdV genomic transduction / entry (qPCR of viral genome) (AdV [2]) | Effect on junctional staining of MAGI-1 (CAR^Ex8 [3]) | Immunolocalization of endogenous CAR^Ex8 (CAR^Ex8 [3]) | CAR^Ex8 protein level (Western blotting) (CAR^Ex8 [4]) | AdV genomic transduction / entry (qPCR of viral genome) (AdV [5]) | Transepithelial resistance (TER) ([6]; 50 μM daily for 16 days, versus control) | FITC-Dextran 70 kDa diffusion across epithelia ([6]; TAT-PDZ3 peptide study) | FITC-Dextran 4 kDa diffusion across epithelia ([6]; absence of EDTA, TAT-PDZ3 peptide study) | Toxicity to epithelia ([6]; primary human airway epithelia)
1 | CC(C)C[C@H](NC(=O)[C@H](CCC(N)=O)NC(=O)[C@@H](NC(=O)[C@H](CCC(=O)O)NC(=O)[C@H](CCCNC(=N)N)NC(=O)[C@H](CCCNC(=N)N)NC(=O)[C@@H](NC(=O)[C@H](CCCNC(=N)N)NC(=O)[C@H](CO)NC(=O)[C@H](CCC(N)=O)NC(=O)[C@@H]1CCCN1C(=O)[C@@H]1CCCN1C(=O)[C@H](CCCNC(=N)N)NC(=O)[C@H](CCCNC(=N)N)NC(=O)[C@H](CCCNC(=N)N)NC(=O)[C@H](CCC(N)=O)NC(=O)[C@H](CCCNC(=N)N)NC(=O)[C@H](CCCNC(=N)N)NC(=O)[C@H](CCCCN)NC(=O)[C@H](CCCCN)NC(=O)[C@H](CCCNC(=N)N)NC(=O)CN)[C@@H](C)O)[C@@H](C)O)C(=O)O [TAT-E6] (H-GRKKRRQRRRPPQSRTRRETQL-OH; N-terminus and C-terminus assumed) | 15 ± 4 nM | marked decrease | significant decrease | minor to no effect | delocalization of CAR^Ex8 to the nuclear compartment | marked decrease | significant decrease | – | – | – | –
2 | CC(C)C[C@H](NC(=O)[C@H](CO)NC(=O)CNC(=O)[C@H](C)NC(=O)[C@H](CCC(N)=O)NC(=O)[C@H](CO)NC(=O)[C@H](CCC(N)=O)NC(=O)[C@H](C)NC(=O)[C@H](CCC(N)=O)NC(=O)[C@@H]1CCCN1C(=O)[C@@H]1CCCN1C(=O)[C@H](CCCNC(=N)N)NC(=O)[C@H](CCCNC(=N)N)NC(=O)[C@H](CCCNC(=N)N)NC(=O)[C@H](CCC(N)=O)NC(=O)[C@H](CCCNC(=N)N)NC(=O)[C@H](CCCNC(=N)N)NC(=O)[C@H](CCCCN)NC(=O)[C@H](CCCCN)NC(=O)[C@H](CCCNC(=N)N)NC(=O)CN)C(=O)N[C@H](C(=O)O)C(C)C [TAT-ESAM] (H-GRKKRRQRRRPPQAQSQAGSLV-OH; N-terminus and C-terminus assumed) | – | – | – | – | – | – | – | No difference | no difference | no difference | no overt toxicity
